From article PMC548510, “Inhibition of early steps in the lentiviral replication cycle by cathelicidin host defense peptides” (Retrovirology, 2005)
Like-named read-outs stand apart in the source and are kept apart here.

What was measured:
[1] = system: S. aureus; format: cell-based, Staphylococcus aureus (ATCC 25923); settings: radial diffusion, 1% agarose underlay, 10 mM sodium phosphate, 100 mM NaCl, pH 7.4, 3 individual experiments, quadruplicates
[2] = system: E. faecalis; test: radial diffusion assay (growth inhibition); format: cell-based, Enterococcus faecalis (ATCC 29212); settings: 1% agarose underlay, 10 mM sodium phosphate, 100 mM NaCl, pH 7.4, 3 individual experiments, quadruplicates
[3] = system: E. coli; format: cell-based, Escherichia coli (ATCC 25922); settings: radial diffusion, 1% agarose underlay, 10 mM sodium phosphate, 100 mM NaCl, pH 7.4, 3 individual experiments, quadruplicates
[4] = system: VSV-G pseudotyped lentiviral vector VLΔBH
[5] = system: A. baumanii; test: radial diffusion assay (growth inhibition); format: cell-based, Acinetobacter baumannii (ATCC 19606); settings: 1% agarose underlay, 10 mM sodium phosphate, 100 mM NaCl, pH 7.4, 3 individual experiments, quadruplicates, > 128 = not susceptible
[6] = system: S. epidermidis; test: radial diffusion assay (growth inhibition); format: cell-based, Staphylococcus epidermidis (ATCC 12228); settings: 1% agarose underlay, 10 mM sodium phosphate, 100 mM NaCl, pH 7.4, 3 individual experiments, quadruplicates
[7] = system: wild type HIV-1; parameters: IC50, wild type HIV-1 infection, as printed in the picture of Figure 6 C, D: unit not given beside the values; settings: for IC50, wild type HIV-1 infection, as printed in the picture of Figure 6 C, D: P4CCR5 indicator cells, virus titer
[8] = system: HIV vectors containing the HIV-1 envelope; parameters: IC50, HIV-1 Env mediated vector entry, as printed in the picture of Figure 6 A, B: unit not given beside the values
[9] = system: P4CCR5 cells; test: BrdU incorporation cell proliferation assay; format: cell-based
Procedure: 293-Luc cells were plated in 96 well plates at a density of 2 × 10^3 cells / well. After 48 hours, 50 μl of MTT-solution (3 mg/ml) was added and incubated at 37° C under 5% CO2 for 1 hour. After this time medium was removed and 100 μl 0.04 N HCL + 10% SDS was used to dissolve the resulting blue formazan crystals in living cells. The optical density was determined at 550 nm. Each single value of the triplicates was expressed as percent of the mean of triplicates of control cultures infected with the same vector in the absence of HDPs and the mean and the standard deviation of the percent values was calculated for each triplicate. In addition the BrdU Cell proliferation ELISA with chemiluminescence detection (Roche Diagnostics GmbH, Mannheim, Germany) was performed. After 293-Luc cells or P4CCR5 cells were plated in 96 well plates at a density of 2 × 10^3 cells/well BrdU (5-bromo-2'-deoxyuridine) was added to the cells with a resulting concentration of 10 μM for the last 22 h of the incubation period. After removing the culture medium, the cells were fixed and DNA was denatured in one step with Fixdenat. Thereafter the cells were incubated with Anti-BrdU-POD for 1 h at room temperature. The chemiluminescence detection was measured after automatic injection of substrate solution with a microplate-luminometer (Orion, Berthold detection systems, Pforzheim, Germany).
To determine the effect of HDPs on vector infectivity and cell metabolism, 293A target cells were plated in triplicates into 96-well plates at 2 × 10^3 cells / well. […] The affect of HDPs on cell metabolism was determined in parallel by plating 293-Luc cells exactly the same way as 293A cells and the luciferase activity was determined after one (as a control to inhibition of adenoviral vector infectivity) or two (as a control of lentiviral infectivity) days of incubation with HDPs. For GFP-expressing vectors, vector titers were calculated from the number of GFP positive cells per well as previously described and the BrdU incorporation assay was used to monitor cytotoxic effects.

[10] = system: retroviral vector (pRV-172) containing the amphotropic MLV Env; format: cell-based
[11] = system: P. aeruginosa; test: radial diffusion assay (growth inhibition); format: cell-based, Pseudomonas aeruginosa (ATCC 27853); settings: 1% agarose underlay, 10 mM sodium phosphate, 100 mM NaCl, pH 7.4, 3 individual experiments, quadruplicates, > 128 = not susceptible

| Compound | M E C (minimal effectory concentration) [1] | M E C (minimal effectory concentration) [2] | M E C (minimal effectory concentration) [3] | 50% inhibitory concentration (IC50) for the VLΔBH lentiviral vector [4] | specific inhibition of early steps of infection (lentiviral vector versus stably transduced target cells) [4] | M E C (minimal effectory concentration) [5] | M E C (minimal effectory concentration) [6] | IC50, wild type HIV-1 infection, as printed in the picture of Figure 6 C, D [7] | IC50, HIV-1 Env mediated vector entry, as printed in the picture of Figure 6 A, B ([8]; P4CCR5 cells, GFP vector titer) | IC50, inhibition of HIV vectors containing the HIV-1 envelope ([8]; vectors containing the envelope) | inhibitory effects on cell proliferation at the IC50 concentrations (25 μg/ml LL37, 14 μg/ml PG-1) [9] | dose dependent reduction in luciferase activity, MLV vector compared with lentiviral vector ([10]; 293A cells, triplicates of two independent experiments) | IC50 against wild type HIV-1 ([7]; wild type) | M E C (minimal effectory concentration) [11] | IC50, HIV-1 Env mediated vector entry, as printed in the picture of Figure 6 A, B [8] | concentration up to which inhibitory effects on cell proliferation were not observed [9] | dose dependent reduction in luciferase activity, MLV vector compared with lentiviral vector [10] |
| --- | --- | --- | --- | --- | --- | --- | --- | --- | --- | --- | --- | --- | --- | --- | --- | --- | --- |
| CC1(C)S[C@@H]2[C@H](NC(=O)[C@H](N)c3ccccc3)C(=O)N2[C@H]1C(=O)O [Ampicillin] | 10,50 ± 0,2 μg/ ml | 28,85 ± 0,6 μg/ ml | 18,9 ± 0,9 μg/ ml |  |  |  |  |  |  |  |  |  |  |  |  |  |  |
| CC[C@H](C)[C@H](NC(=O)[C@H](CCCCN)NC(=O)[C@H](CCC(=O)O)NC(=O)[C@H](CCCCN)NC(=O)[C@H](CO)NC(=O)[C@H](CCCCN)NC(=O)[C@H](CCCNC(=N)N)NC(=O)[C@H](Cc1ccccc1)NC(=O)[C@H](Cc1ccccc1)NC(=O)[C@H](CC(=O)O)NC(=O)CNC(=O)[C@H](CC(C)C)NC(=O)[C@@H](N)CC(C)C)C(=O)NCC(=O)N[C@@H](CCCCN)C(=O)N[C@@H](CCC(=O)O)C(=O)N[C@@H](Cc1ccccc1)C(=O)N[C@@H](CCCCN)C(=O)N[C@@H](CCCNC(=N)N)C(=O)N[C@H](C(=O)N[C@H](C(=O)N[C@@H](CCC(N)=O)C(=O)N[C@@H](CCCNC(=N)N)C(=O)N[C@H](C(=O)N[C@@H](CCCCN)C(=O)N[C@@H](CC(=O)O)C(=O)N[C@@H](Cc1ccccc1)C(=O)N[C@@H](CC(C)C)C(=O)N[C@@H](CCCNC(=N)N)C(=O)N[C@@H](CC(N)=O)C(=O)N[C@@H](CC(C)C)C(=O)N[C@H](C(=O)N1CCC[C@H]1C(=O)N[C@@H](CCCNC(=N)N)C(=O)N[C@H](C(=O)N[C@@H](CCC(=O)O)C(=O)N[C@@H](CO)C(=O)O)[C@@H](C)O)C(C)C)[C@@H](C)CC)C(C)C)[C@@H](C)CC [LL37] | 4,74 ± 0,1 μg/ ml | 13,61 ± 0,7 μg/ ml | 11,66 ± 1,5 μg/ ml | approximately 30 μg/ml | Specific inhibition | 13,13 ± 0,2 μg/ ml | 13,09 ± 0,6 μg/ ml | 87.8 | 25.1 | 25 µg/mL | only minimal inhibitory effects | very similar |  |  |  |  |  |
| CC(C)C[C@H](NC(=O)[C@H](CCCNC(=N)N)NC(=O)CNC(=O)CNC(=O)[C@@H](N)CCCNC(=N)N)C(=O)N[C@H]1CSSC[C@@H](C(=O)N[C@H](C(=O)NCC(=O)N[C@@H](CCCNC(=N)N)C(N)=O)C(C)C)NC(=O)[C@H](C(C)C)NC(=O)[C@@H]2CSSC[C@H](NC(=O)[C@H](Cc3ccc(O)cc3)NC1=O)C(=O)N[C@@H](CCCNC(=N)N)C(=O)N[C@@H](CCCNC(=N)N)C(=O)N[C@@H](CCCNC(=N)N)C(=O)N[C@@H](Cc1ccccc1)C(=O)N2 [Protegrin-1] | 0,91 ± 0,04 μg/ ml | 4,46 ± 0,3 μg/ ml | 2 ± 0,1 μg/ ml | ~16.8 µg/mL | Specific inhibition | 5,01 ± 0,2 μg/ ml | 4,48 ± 0,2 μg/ ml | 7.2 |  |  | only minimal inhibitory effects |  | below 10 μg/ml | 3,3 ± 1,1 μg/ ml | 14.3 | > 50 µg/mL | very similar |
| Plectasin | 2,42 ± 0,4 μg/ ml | 10,60 ± 0,7 μg/ ml | 79,10 ± 0,3 μg/ ml |  |  | > 128 µg/mL | 8,20 ± 0,5 μg/ ml |  |  |  |  |  |  | > 128 µg/mL |  |  |  |
